In publication PMC9377102, “Toxicity and toxicokinetics of the ethanol extract of Zuojin formula” (BMC Complementary Medicine and Therapies, 2022):
Like-named read-outs stand apart in the source and are kept apart here.

Assay: Toxicokinetics test in the satellite groups (UPLC-MS/MS of rat plasma)
Assay type: in vivo
Conditions: for AUC(0-t) / Cmax / Tmax / half-life: SD, rat, plasma, po; for half-life: read-out: T1/2 mean (converted)
Procedure: SD rats (5 ~ 6 weeks, 3/group/sex) were randomly allocated to three treatment groups and given the same dosage as those in the repeated toxicity experiment for 28 days. […] Carbamazepine was chosen as the internal standard (IS). The blood samples were centrifuged to obtain plasma. Then, 300 μL of acetonitrile containing 40 ng of IS was added to 100 μL of plasma. After vortexing for 1 min, the mixture was centrifuged at 17,000 rpm for 15 min at 4 °C. The supernatant of each sample was injected into a UPLC–MS/MS system for determination. The injection volume was 1 μL. UPLC–MS analysis was performed on a Thermo Fisher Scientific Ultimate 3000 UPLC system (San Jose, USA) and an API 4000 QTRAP mass spectrometer (Foster City, USA) equipped with an ESI source. The mobile phase consisted of 2 solvents: (A) water containing 0.1% formic acid and (B) 100% acetonitrile. For MS, multiple reaction monitoring (MRM) in positive ion mode was used as the scanning mode for the main components and IS in the plasma samples. The dwell time (DT), collision energy (CE), quadrupole 1 pre-rod bias (Q1) and quadrupole 3 pre-rod bias (Q3) are listed in Table 3.

[1] = female, female rats, Day 1, highest dose (berberine 72.08, epiberberine 7.42, coptisine 7.42, palmatine 18.26, jatrorrhizine 2.80, columbamine 5.93 mg/kg)
[2] = female, female rats, Day 1, lowest dose (berberine 8.01, epiberberine 0.82, coptisine 1.38, palmatine 2.03, jatrorrhizine 0.31, columbamine 0.66 mg/kg)
[3] = female, female rats, Day 1, middle dose (berberine 24.03, epiberberine 2.47, coptisine 2.47, palmatine 6.09, jatrorrhizine 0.93, columbamine 1.98 mg/kg)
[4] = female, female rats, Day 28, highest dose (berberine 72.08, epiberberine 7.42, coptisine 7.42, palmatine 18.26, jatrorrhizine 2.80, columbamine 5.93 mg/kg)
[5] = female, female rats, Day 28, lowest dose (berberine 8.01, epiberberine 0.82, coptisine 1.38, palmatine 2.03, jatrorrhizine 0.31, columbamine 0.66 mg/kg)
[6] = female, female rats, Day 28, middle dose (berberine 24.03, epiberberine 2.47, coptisine 2.47, palmatine 6.09, jatrorrhizine 0.93, columbamine 1.98 mg/kg)
[7] = male, male rats, Day 1, highest dose (berberine 72.08, epiberberine 7.42, coptisine 7.42, palmatine 18.26, jatrorrhizine 2.80, columbamine 5.93 mg/kg)
[8] = male, male rats, Day 1, lowest dose (berberine 8.01, epiberberine 0.82, coptisine 1.38, palmatine 2.03, jatrorrhizine 0.31, columbamine 0.66 mg/kg)
[9] = male, male rats, Day 1, middle dose (berberine 24.03, epiberberine 2.47, coptisine 2.47, palmatine 6.09, jatrorrhizine 0.93, columbamine 1.98 mg/kg)
[10] = male, male rats, Day 28, highest dose (berberine 72.08, epiberberine 7.42, coptisine 7.42, palmatine 18.26, jatrorrhizine 2.80, columbamine 5.93 mg/kg)
[11] = male, male rats, Day 28, lowest dose (berberine 8.01, epiberberine 0.82, coptisine 1.38, palmatine 2.03, jatrorrhizine 0.31, columbamine 0.66 mg/kg)
[12] = male, male rats, Day 28, middle dose (berberine 24.03, epiberberine 2.47, coptisine 2.47, palmatine 6.09, jatrorrhizine 0.93, columbamine 1.98 mg/kg)

Compound `COc1cc2c(cc1O)-c1cc3ccc(OC)c(OC)c3c[n+]1CC2` [columbamine] has an AUC(0-t) (female, 0.4 g/kg, female rats, Day 1, low dose TAZF 0.4 g/kg by gavage, read-out: AUC0-t) of 71.4 ± 80.1 ng·h/mL, a Cmax (female, 0.4 g/kg, female rats, Day 1, low dose TAZF 0.4 g/kg by gavage, read-out: Cmax) of 30 ± 20.7 ng/mL and an AUC(0-t) (female, 0.4 g/kg, female rats, Day 28, low dose TAZF 0.4 g/kg by gavage, read-out: AUC0-t) of 68.1 ± 76.9 ng·h/mL. It also gave a Cmax (female, 0.4 g/kg, female rats, Day 28, low dose TAZF 0.4 g/kg by gavage, read-out: Cmax) of 30.3 ± 40 ng/mL, an AUC(0-t) (female, 3.7 g/kg, female rats, Day 1, high dose TAZF 3.7 g/kg by gavage, read-out: AUC0-t) of 41.1 ± 10 ng·h/mL and a Cmax (female, 3.7 g/kg, female rats, Day 1, high dose TAZF 3.7 g/kg by gavage, read-out: Cmax) of 37.7 ± 30.4 ng/mL. It also gave an AUC(0-t) (female, 3.7 g/kg, female rats, Day 28, high dose TAZF 3.7 g/kg by gavage, read-out: AUC0-t) of 12.2 ± 4.52 ng·h/mL, a Cmax (female, 3.7 g/kg, female rats, Day 28, high dose TAZF 3.7 g/kg by gavage, read-out: Cmax) of 2.98 ± 0.24 ng/mL and a Tmax [1] of 0.5 h. The AUC(0-t) (female, female rats, Day 1, highest dose (berberine 72.08, epiberberine 7.42, coptisine 7.42, palmatine 18.26, jatrorrhizine 2.80, columbamine 5.93 mg/kg), read-out: AUC0-t mean) was 41.1 ng·h/mL, the Cmax (female, female rats, Day 1, highest dose (berberine 72.08, epiberberine 7.42, coptisine 7.42, palmatine 18.26, jatrorrhizine 2.80, columbamine 5.93 mg/kg), read-out: Cmax mean) was 37.7 ng/mL and the half-life [1] was 8.24 h. The Tmax [2] was 2.33 h, the AUC(0-t) (female, female rats, Day 1, lowest dose (berberine 8.01, epiberberine 0.82, coptisine 1.38, palmatine 2.03, jatrorrhizine 0.31, columbamine 0.66 mg/kg), read-out: AUC0-t mean) was 71.4 ng·h/mL and the Cmax (female, female rats, Day 1, lowest dose (berberine 8.01, epiberberine 0.82, coptisine 1.38, palmatine 2.03, jatrorrhizine 0.31, columbamine 0.66 mg/kg), read-out: Cmax mean) was 30 ng/mL. It also gave a half-life [2] of 4.31 h, a Tmax [3] of 0.83 h and an AUC(0-t) (female, female rats, Day 1, middle dose (berberine 24.03, epiberberine 2.47, coptisine 2.47, palmatine 6.09, jatrorrhizine 0.93, columbamine 1.98 mg/kg), read-out: AUC0-t mean) of 59.2 ng·h/mL. It also gave a Cmax (female, female rats, Day 1, middle dose (berberine 24.03, epiberberine 2.47, coptisine 2.47, palmatine 6.09, jatrorrhizine 0.93, columbamine 1.98 mg/kg), read-out: Cmax mean) of 39.6 ng/mL, a half-life [3] of 7.78 h and a Tmax [4] of 1.17 h. The AUC(0-t) (female, female rats, Day 28, highest dose (berberine 72.08, epiberberine 7.42, coptisine 7.42, palmatine 18.26, jatrorrhizine 2.80, columbamine 5.93 mg/kg), read-out: AUC0-t mean) was 12.2 ng·h/mL, the Cmax (female, female rats, Day 28, highest dose (berberine 72.08, epiberberine 7.42, coptisine 7.42, palmatine 18.26, jatrorrhizine 2.80, columbamine 5.93 mg/kg), read-out: Cmax mean) was 2.98 ng/mL and the half-life [4] was 12.4 h. For the same compound, the Tmax [5] was 0.42 h, the AUC(0-t) (female, female rats, Day 28, lowest dose (berberine 8.01, epiberberine 0.82, coptisine 1.38, palmatine 2.03, jatrorrhizine 0.31, columbamine 0.66 mg/kg), read-out: AUC0-t mean) was 68.1 ng·h/mL and the Cmax (female, female rats, Day 28, lowest dose (berberine 8.01, epiberberine 0.82, coptisine 1.38, palmatine 2.03, jatrorrhizine 0.31, columbamine 0.66 mg/kg), read-out: Cmax mean) was 30.3 ng/mL. For the same compound, the half-life [5] was 10.9 h, the Tmax [6] was 1.5 h and the AUC(0-t) (female, female rats, Day 28, middle dose (berberine 24.03, epiberberine 2.47, coptisine 2.47, palmatine 6.09, jatrorrhizine 0.93, columbamine 1.98 mg/kg), read-out: AUC0-t mean) was 9.42 ng·h/mL. For the same compound, the Cmax (female, female rats, Day 28, middle dose (berberine 24.03, epiberberine 2.47, coptisine 2.47, palmatine 6.09, jatrorrhizine 0.93, columbamine 1.98 mg/kg), read-out: Cmax mean) was 1.35 ng/mL, the half-life [6] was 10.7 h and the AUC(0-t) (male, 0.4 g/kg, male rats, Day 1, low dose TAZF 0.4 g/kg by gavage, read-out: AUC0-t) was 153 ± 54.9 ng·h/mL. The Cmax (male, 0.4 g/kg, male rats, Day 1, low dose TAZF 0.4 g/kg by gavage, read-out: Cmax) was 32.1 ± 28.7 ng/mL, the AUC(0-t) (male, 0.4 g/kg, male rats, Day 28, low dose TAZF 0.4 g/kg by gavage, read-out: AUC0-t) was 31.1 ± 2.21 ng·h/mL and the Cmax (male, 0.4 g/kg, male rats, Day 28, low dose TAZF 0.4 g/kg by gavage, read-out: Cmax) was 44.2 ± 42.3 ng/mL. The AUC(0-t) (male, 3.7 g/kg, male rats, Day 1, high dose TAZF 3.7 g/kg by gavage, read-out: AUC0-t) was 276 ± 92 ng·h/mL, the Cmax (male, 3.7 g/kg, male rats, Day 1, high dose TAZF 3.7 g/kg by gavage, read-out: Cmax) was 46.5 ± 30.3 ng/mL and the AUC(0-t) (male, 3.7 g/kg, male rats, Day 28, high dose TAZF 3.7 g/kg by gavage, read-out: AUC0-t) was 65.1 ± 6.74 ng·h/mL. For the same compound, the Cmax (male, 3.7 g/kg, male rats, Day 28, high dose TAZF 3.7 g/kg by gavage, read-out: Cmax) was 16.4 ± 11.8 ng/mL, the Tmax [7] was 4 h and the AUC(0-t) (male, male rats, Day 1, highest dose (berberine 72.08, epiberberine 7.42, coptisine 7.42, palmatine 18.26, jatrorrhizine 2.80, columbamine 5.93 mg/kg), read-out: AUC0-t mean) was 276 ng·h/mL. For the same compound, the Cmax (male, male rats, Day 1, highest dose (berberine 72.08, epiberberine 7.42, coptisine 7.42, palmatine 18.26, jatrorrhizine 2.80, columbamine 5.93 mg/kg), read-out: Cmax mean) was 46.5 ng/mL, the half-life [7] was 10.9 h and the Tmax [8] was 10 h. The AUC(0-t) (male, male rats, Day 1, lowest dose (berberine 8.01, epiberberine 0.82, coptisine 1.38, palmatine 2.03, jatrorrhizine 0.31, columbamine 0.66 mg/kg), read-out: AUC0-t mean) was 153 ng·h/mL, the Cmax (male, male rats, Day 1, lowest dose (berberine 8.01, epiberberine 0.82, coptisine 1.38, palmatine 2.03, jatrorrhizine 0.31, columbamine 0.66 mg/kg), read-out: Cmax mean) was 32.1 ng/mL and the half-life [8] was 47.8 h. It also gave a Tmax [9] of 1.83 h, an AUC(0-t) (male, male rats, Day 1, middle dose (berberine 24.03, epiberberine 2.47, coptisine 2.47, palmatine 6.09, jatrorrhizine 0.93, columbamine 1.98 mg/kg), read-out: AUC0-t mean) of 207 ng·h/mL and a Cmax (male, male rats, Day 1, middle dose (berberine 24.03, epiberberine 2.47, coptisine 2.47, palmatine 6.09, jatrorrhizine 0.93, columbamine 1.98 mg/kg), read-out: Cmax mean) of 41.7 ng/mL. For the same compound, the half-life [9] was 59.9 h, the Tmax [10] was 4.08 h and the AUC(0-t) (male, male rats, Day 28, highest dose (berberine 72.08, epiberberine 7.42, coptisine 7.42, palmatine 18.26, jatrorrhizine 2.80, columbamine 5.93 mg/kg), read-out: AUC0-t mean) was 65.1 ng·h/mL. It also gave a Cmax (male, male rats, Day 28, highest dose (berberine 72.08, epiberberine 7.42, coptisine 7.42, palmatine 18.26, jatrorrhizine 2.80, columbamine 5.93 mg/kg), read-out: Cmax mean) of 16.4 ng/mL, a half-life [10] of 11.2 h and a Tmax [11] of 0.83 h. The AUC(0-t) (male, male rats, Day 28, lowest dose (berberine 8.01, epiberberine 0.82, coptisine 1.38, palmatine 2.03, jatrorrhizine 0.31, columbamine 0.66 mg/kg), read-out: AUC0-t mean) was 31.1 ng·h/mL, the Cmax (male, male rats, Day 28, lowest dose (berberine 8.01, epiberberine 0.82, coptisine 1.38, palmatine 2.03, jatrorrhizine 0.31, columbamine 0.66 mg/kg), read-out: Cmax mean) was 44.2 ng/mL and the half-life [11] was 7.52 h. For the same compound, the Tmax [12] was 12 h, the AUC(0-t) (male, male rats, Day 28, middle dose (berberine 24.03, epiberberine 2.47, coptisine 2.47, palmatine 6.09, jatrorrhizine 0.93, columbamine 1.98 mg/kg), read-out: AUC0-t mean) was 90.6 ng·h/mL and the Cmax (male, male rats, Day 28, middle dose (berberine 24.03, epiberberine 2.47, coptisine 2.47, palmatine 6.09, jatrorrhizine 0.93, columbamine 1.98 mg/kg), read-out: Cmax mean) was 21.4 ng/mL. For the same compound, the half-life [12] was 4.07 h and the “Systemic exposure after 28 days of administration vs single administration” value (rats, oral TAZF) was “much lower”.
